From ChEMBL document CHEMBL3994622, “Design and synthesis of new RAF kinase-inhibiting antiproliferative quinoline derivatives. Part 2: Diarylurea derivatives” (Eur J Med Chem, 2017)

Key:
MOLT-4 = experiment: Growth inhibition of human MOLT4 cells assessed as cell growth at 0.05 uM incubated for 48 hrs by sulforhodamine B assay relative to control; type: functional; details: MOLT-4, 48 h, read-out: Activity
MCF7 = experiment: Growth inhibition of human MCF7 cells assessed as cell growth at 50 uM incubated for 48 hrs by sulforhodamine B assay relative to control; type: functional; details: MCF7, 48 h, read-out: Activity
PC-3 = experiment: Growth inhibition of human PC3 cells assessed as cell growth at 0.5 uM incubated for 48 hrs by sulforhodamine B assay relative to control; type: functional; details: PC-3, 48 h, read-out: Activity
EKVX = experiment: Growth inhibition of human EKVX cells assessed as cell growth at 50 uM incubated for 48 hrs by sulforhodamine B assay relative to control; type: functional; details: read-out: Activity
TK-10 = experiment: Growth inhibition of human TK10 cells assessed as cell growth at 0.05 uM incubated for 48 hrs by sulforhodamine B assay relative to control; type: functional; details: TK-10, 48 h, read-out: Activity
HCT-116 [1] = experiment: Growth inhibition of human HCT116 cells assessed as cell growth at 0.005 uM incubated for 48 hrs by sulforhodamine B assay relative to control; type: functional; details: HCT-116, 48 h, read-out: Activity
IGROV-1 = experiment: Growth inhibition of human IGROV1 cells assessed as cell growth at 0.05 uM incubated for 48 hrs by sulforhodamine B assay relative to control; type: functional; details: IGROV-1, 48 h, read-out: Activity
UO-31 = experiment: Growth inhibition of human UO31 cells assessed as cell growth at 5 uM incubated for 48 hrs by sulforhodamine B assay relative to control; type: functional; details: UO-31, 48 h, read-out: Activity
RPMI-8226 [2] = experiment: Growth inhibition of human RPMI8226 cells assessed as cell growth at 0.005 uM incubated for 48 hrs by sulforhodamine B assay relative to control; type: functional; details: RPMI-8226, 48 h, read-out: Activity
HCT-116 [3] = experiment: Growth inhibition of human HCT116 cells assessed as cell growth at 5 uM incubated for 48 hrs by sulforhodamine B assay relative to control; type: functional; details: HCT-116, 48 h, read-out: Activity
SNB-75 = experiment: Growth inhibition of human SNB75 cells assessed as cell growth at 0.5 uM incubated for 48 hrs by sulforhodamine B assay relative to control; type: functional; details: SNB-75, 48 h, read-out: Activity
NCI-H226 = experiment: Growth inhibition of human NCI-H226 cells assessed as cell growth at 0.5 uM incubated for 48 hrs by sulforhodamine B assay relative to control; type: functional; details: NCI-H226, 48 h, read-out: Activity
HCC 2998 = experiment: Growth inhibition of human HCC2998 cells assessed as cell growth at 5 uM incubated for 48 hrs by sulforhodamine B assay relative to control; type: functional; details: HCC 2998, 48 h, read-out: Activity
UACC-257 = experiment: Growth inhibition of human UACC257 cells assessed as cell growth at 0.5 uM incubated for 48 hrs by sulforhodamine B assay relative to control; type: functional; details: UACC-257, 48 h, read-out: Activity
LOX IMVI = experiment: Growth inhibition of human LOXIMVI cells assessed as cell growth at 0.005 uM incubated for 48 hrs by sulforhodamine B assay relative to control; type: functional; details: read-out: Activity
SW-620 = experiment: Growth inhibition of human SW620 cells assessed as cell growth at 0.5 uM incubated for 48 hrs by sulforhodamine B assay relative to control; type: functional; details: SW-620, 48 h, read-out: Activity
RPMI-8226 [4] = experiment: Growth inhibition of human RPMI8226 cells assessed as cell growth at 50 uM incubated for 48 hrs by sulforhodamine B assay relative to control; type: functional; details: RPMI-8226, 48 h, read-out: Activity
DU-145 = experiment: Growth inhibition of human DU145 cells assessed as cell growth at 0.005 uM incubated for 48 hrs by sulforhodamine B assay relative to control; type: functional; details: DU-145, 48 h, read-out: Activity
HL-60(TB) = experiment: Growth inhibition of human HL-60(TB) cells assessed as cell growth at 0.005 uM incubated for 48 hrs by sulforhodamine B assay relative to control; type: functional; details: HL-60, 48 h, read-out: Activity
T47D = experiment: Growth inhibition of human T47D cells assessed as cell growth at 0.005 uM incubated for 48 hrs by sulforhodamine B assay relative to control; type: functional; details: read-out: Activity
Malme-3M = experiment: Growth inhibition of human MALME-3M cells assessed as cell growth at 5 uM incubated for 48 hrs by sulforhodamine B assay relative to control; type: functional; details: read-out: Activity
SR = experiment: Growth inhibition of human SR cells assessed as cell growth at 0.005 uM incubated for 48 hrs by sulforhodamine B assay relative to control; type: functional; details: read-out: Activity
CAKI-1 = experiment: Growth inhibition of human Caki1 cells assessed as cell growth at 0.5 uM incubated for 48 hrs by sulforhodamine B assay relative to control; type: functional; details: CAKI-1, 48 h, read-out: Activity
SK-MEL-28 = experiment: Growth inhibition of human SK-MEL-28 cells assessed as cell growth at 50 uM incubated for 48 hrs by sulforhodamine B assay relative to control; type: functional; details: SK-MEL-28, 48 h, read-out: Activity
HOP-62 [5] = experiment: Growth inhibition of human HOP62 cells assessed as cell growth at 0.05 uM incubated for 48 hrs by sulforhodamine B assay relative to control; type: functional; details: HOP-62, 48 h, read-out: Activity
SK-OV-3 = experiment: Growth inhibition of human SKOV3 cells assessed as cell growth at 5 uM incubated for 48 hrs by sulforhodamine B assay relative to control; type: functional; details: SK-OV-3, 48 h, read-out: Activity
RXF 393 = experiment: Growth inhibition of human RXF393 cells assessed as cell growth at 0.05 uM incubated for 48 hrs by sulforhodamine B assay relative to control; type: functional; details: RXF 393, 48 h, read-out: Activity
NCI-H522 = experiment: Growth inhibition of human NCI-H522 cells assessed as cell growth at 0.005 uM incubated for 48 hrs by sulforhodamine B assay relative to control; type: functional; details: NCI-H522, 48 h, read-out: Activity
[6] = biological target: Mitogen-activated protein kinase 14 (Homo sapiens) (UniProt Q16539); experiment: Inhibition of human MAPK p38allpha at 10 uM using myelin basic protein as substrate in presence of [33P]ATP by Hotspot assay relative to control
Sequence of Mitogen-activated protein kinase 14 (Homo sapiens) (Q16539 whole entry): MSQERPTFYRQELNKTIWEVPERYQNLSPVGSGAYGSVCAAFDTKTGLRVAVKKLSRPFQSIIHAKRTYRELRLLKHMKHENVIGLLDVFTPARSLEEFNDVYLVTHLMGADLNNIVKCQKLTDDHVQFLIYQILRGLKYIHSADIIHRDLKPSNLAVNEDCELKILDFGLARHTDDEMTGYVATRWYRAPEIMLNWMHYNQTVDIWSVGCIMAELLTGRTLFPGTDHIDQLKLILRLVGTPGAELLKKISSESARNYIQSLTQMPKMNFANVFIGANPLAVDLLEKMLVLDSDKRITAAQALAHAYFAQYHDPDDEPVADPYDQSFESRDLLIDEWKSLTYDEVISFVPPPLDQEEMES

[7] = biological target: Serine/threonine-protein kinase B-raf (Homo sapiens, UniProt P15056); experiment: Inhibition of human BRAF at 10 uM using MEK1 as substrate in presence of [33P]ATP by Hotspot assay relative to control
Sequence of Serine/threonine-protein kinase B-raf (P15056 whole entry): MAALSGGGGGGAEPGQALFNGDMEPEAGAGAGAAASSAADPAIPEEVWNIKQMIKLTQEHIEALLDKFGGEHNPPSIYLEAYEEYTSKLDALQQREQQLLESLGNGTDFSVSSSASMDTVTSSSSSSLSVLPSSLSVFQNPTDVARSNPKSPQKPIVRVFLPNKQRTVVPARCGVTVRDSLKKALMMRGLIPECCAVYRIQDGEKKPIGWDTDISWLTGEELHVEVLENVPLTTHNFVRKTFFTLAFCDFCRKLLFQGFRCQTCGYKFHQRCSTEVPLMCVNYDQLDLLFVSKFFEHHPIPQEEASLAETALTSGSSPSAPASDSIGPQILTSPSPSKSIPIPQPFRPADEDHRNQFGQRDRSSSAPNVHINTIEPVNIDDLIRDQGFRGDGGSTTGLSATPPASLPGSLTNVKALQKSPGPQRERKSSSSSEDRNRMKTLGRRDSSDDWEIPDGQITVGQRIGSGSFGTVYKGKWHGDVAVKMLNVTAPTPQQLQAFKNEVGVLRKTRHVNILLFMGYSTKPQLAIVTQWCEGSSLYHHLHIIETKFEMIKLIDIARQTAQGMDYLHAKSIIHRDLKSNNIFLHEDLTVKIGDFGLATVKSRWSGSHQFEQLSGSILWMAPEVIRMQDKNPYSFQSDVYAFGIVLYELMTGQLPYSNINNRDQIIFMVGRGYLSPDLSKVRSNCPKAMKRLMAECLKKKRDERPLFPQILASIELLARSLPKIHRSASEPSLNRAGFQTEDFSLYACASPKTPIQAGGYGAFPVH

HOP-62 [8] = experiment: Growth inhibition of human HOP62 cells assessed as cell growth at 30 uM incubated for 48 hrs by sulforhodamine B assay relative to control; type: functional; details: HOP-62, 48 h, read-out: Activity
MDA-MB-468 [9] = experiment: Growth inhibition of human MDA-MB-468 cells assessed as cell growth at 3 uM incubated for 48 hrs by sulforhodamine B assay relative to control; type: functional; details: MDA-MB-468, 48 h, read-out: Activity
MDA-MB-468 [10] = experiment: Growth inhibition of human MDA-MB-468 cells assessed as cell growth at 30 uM incubated for 48 hrs by sulforhodamine B assay relative to control; type: functional; details: MDA-MB-468, 48 h, read-out: Activity

Structure (SMILES): COc1cc2cc(Oc3ccc(NC(=O)Nc4cccc(C(F)(F)F)c4)cc3)c(C)nc2cc1OC
- growth at 0.05 µM (MOLT-4): 98%
- growth at 50 µM (MCF7): -89%
- growth at 0.5 µM (PC-3): 88%
- growth at 50 µM (EKVX): -48%
- growth at 0.05 µM (TK-10): 95%
- growth at 0.005 µM (HCT-116 [1]): 100%
- growth at 0.05 µM (IGROV-1): 108%
- growth at 5 µM (UO-31): 12%
- growth at 0.005 µM (RPMI-8226 [2]): 103%
- growth at 5 µM (HCT-116 [3]): 6%
- growth at 0.5 µM (SNB-75): 77%
- growth at 0.5 µM (NCI-H226): 108%
- growth at 5 µM (HCC 2998): 26%
- growth at 0.5 µM (UACC-257): 82%
- growth at 0.005 µM (LOX IMVI): 98%
- growth at 0.5 µM (SW-620): 108%
- growth at 50 µM (RPMI-8226 [4]): -47%
- growth at 0.005 µM (DU-145): 103%
- growth at 0.005 µM (HL-60(TB)): 104%
- growth at 0.005 µM (T47D): 90%
- growth at 5 µM (Malme-3M): -1%
- growth at 0.005 µM (SR): 93%
- growth at 0.5 µM (CAKI-1): 91%
- growth at 50 µM (SK-MEL-28): -74%
- growth at 0.05 µM (HOP-62 [5]): 95%
- growth at 5 µM (SK-OV-3): 18%
- growth at 0.05 µM (RXF 393): 105%
- growth at 0.005 µM (NCI-H522): 86%

Structure (SMILES): COc1cc2cc(Oc3ccc(NC(=O)Nc4ccc(Cl)c(C(F)(F)F)c4)cc3)c(C)nc2cc1OC
- inhibition [6]: 56.4%
- inhibition [7]: 74.2%
- growth at 30 µM (HOP-62 [8]): -96%

Structure (SMILES): Cc1nc2cc(O)c(O)cc2cc1Oc1ccc(NC(=O)Nc2ccc(Cl)c(Cl)c2)cc1
- growth at 3 µM (MDA-MB-468 [9]): 92%
- growth at 30 µM (MDA-MB-468 [10]): -34%
